Data: patent publication US12077503B2, “Substituted cyclic amides and their use as herbicides” (FMC CORPORATION, priority 2015, dated 2024)

Assays:
Format in all cases: in vivo
[1] = tested on: redroot pigweed (Amaranthus retroflexus); experiment: Test G Pre-Emergence Protocol; details: Amaranthus retroflexus, pre-emergence, 312 h, evaluated after 13 days; for pest or weed control at 15.625 g/ha: 15.625 g ai/ha; for pest or weed control at 15.625 g/ha / pest or weed control at 250 g/ha: read-out: Pigweed, Redroot damage rating (100=total damage to plant; 0=no damage to plant); for pest or weed control at 62.5 g/ha: 62.5 g ai/ha, 100=total damage to plant, 0=no damage to plant, read-out: plant damage rating, Pigweed, Redroot; for pest or weed control at 250 g/ha: 250 g ai/ha
Method in brief: (§1)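 Test compound in 0.5% Tween 20 acetone/water (50:50) was applied at three rates (15.625, 62.5, 250 g/ha) to soil sown one day earlier. After 13 days plants were scored for injury, where 0 means unaffected and 100 means completely damaged.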

[2] = tested on: barnyardgrass (Echinochloa crus-galli); experiment: Test G Pre-Emergence Protocol; details: Echinochloa crus-galli, pre-emergence, 312 h, evaluated after 13 days; for pest or weed control at 15.625 g/ha: 15.625 g ai/ha, read-out: Barnyard grass damage rating (100=total damage to plant; 0=no damage to plant); for pest or weed control at 62.5 g/ha: 62.5 g ai/ha, 100=total damage to plant, 0=no damage to plant, read-out: plant damage rating, Barnyardgrass; for pest or weed control at 250 g/ha: 250 g ai/ha, read-out: Barnyardgrass damage rating (100=total damage to plant; 0=no damage to plant)
Method in brief: as §1

[3] = tested on: ivy-leaved morning glory (Ipomoea hederacea); experiment: Test G Pre-Emergence Protocol; details: Ipomoea, pre-emergence, 312 h, evaluated after 13 days; for pest or weed control at 15.625 g/ha: 15.625 g ai/ha, read-out: Morning-glory, Ivy-leaved damage rating (100=total damage to plant; 0=no damage to plant); for pest or weed control at 250 g/ha: 250 g ai/ha, read-out: Morningglory, Ivy-leaved damage rating (100=total damage to plant; 0=no damage to plant)
Method in brief: as §1

[4] = tested on: giant foxtail (Setaria faberi); experiment: Test G Pre-Emergence Protocol; details: Setaria faberi, pre-emergence, 312 h, evaluated after 13 days; for pest or weed control at 15.625 g/ha: 15.625 g ai/ha; for pest or weed control at 15.625 g/ha / pest or weed control at 250 g/ha: read-out: Foxtail, Giant damage rating (100=total damage to plant; 0=no damage to plant); for pest or weed control at 62.5 g/ha: 62.5 g ai/ha, 100=total damage to plant, 0=no damage to plant, read-out: plant damage rating, Foxtail, Giant; for pest or weed control at 250 g/ha: 250 g ai/ha
Method in brief: as §1

[5] = tested on: velvetleaf (Abutilon theophrasti); experiment: Test G Pre-Emergence Protocol; details: Abutilon theophrasti, pre-emergence, 312 h, evaluated after 13 days; for pest or weed control at 15.625 g/ha: 15.625 g ai/ha; for pest or weed control at 15.625 g/ha / pest or weed control at 250 g/ha: read-out: Velvetleaf damage rating (100=total damage to plant; 0=no damage to plant); for pest or weed control at 62.5 g/ha: 62.5 g ai/ha, 100=total damage to plant, 0=no damage to plant, read-out: plant damage rating, Velvetleaf; for pest or weed control at 250 g/ha: 250 g ai/ha
Method in brief: as §1

[6] = tested on: corn (Zea mays); experiment: Test G Pre-Emergence Protocol; details: Zea mays, pre-emergence, 312 h, evaluated after 13 days; for plant injury at 15.625 g/ha: 15.625 g ai/ha; for plant injury at 15.625 g/ha / plant injury at 250 g/ha: read-out: Corn damage rating (100=total damage to plant; 0=no damage to plant); for plant injury at 62.5 g/ha: 62.5 g ai/ha, 100=total damage to plant, 0=no damage to plant, read-out: plant damage rating, Corn; for plant injury at 250 g/ha: 250 g ai/ha
Method in brief: as §1

[7] = tested on: redroot pigweed (Amaranthus retroflexus); experiment: Test G Post-Emergence Protocol; details: Amaranthus retroflexus, post-emergence, 312 h; for pest or weed control at 15.625 g/ha: 15.625 g ai/ha, evaluated after 13 days (100=total damage to plant; 0=no damage to plant), read-out: Pigweed, Redroot damage rating; for pest or weed control at 62.5 g/ha: 62.5 g ai/ha, read-out: Pigweed, Redroot damage rating (100=total damage to plant; 0=no damage to plant); for pest or weed control at 62.5 g/ha / pest or weed control at 250 g/ha: evaluated after 13 days; for pest or weed control at 250 g/ha: 250 g ai/ha, read-out: damage to plant, Pigweed, Redroot (100=total damage to plant; 0=no damage to plant)
Method in brief: (§2)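 Pot-grown seedlings, 8 days old, raised in a glasshouse at 24/16 °C day/night with 14 h light and 65% humidity, were sprayed post-emergence with test compound in acetone/water (50:50) plus 0.5% Tween 20 at 15.625, 62.5 or 250 g/ha. Damage was scored visually 13 days later on a 0–100 scale (100 = total damage).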

[8] = tested on: barnyardgrass (Echinochloa crus-galli); experiment: Test G Post-Emergence Protocol; details: Echinochloa crus-galli, post-emergence, 312 h; for pest or weed control at 15.625 g/ha: 15.625 g ai/ha, evaluated after 13 days (100=total damage to plant; 0=no damage to plant), read-out: Barnyardgrass damage rating; for pest or weed control at 62.5 g/ha: 62.5 g ai/ha, read-out: Barnyardgrass damage rating (100=total damage to plant; 0=no damage to plant); for pest or weed control at 62.5 g/ha / pest or weed control at 250 g/ha: evaluated after 13 days; for pest or weed control at 250 g/ha: 250 g ai/ha, read-out: damage to plant, Barnyardgrass (100=total damage to plant; 0=no damage to plant)
Method in brief: as §2

[9] = tested on: ivy-leaved morning glory (Ipomoea hederacea); experiment: Test G Post-Emergence Protocol; details: Ipomoea, post-emergence, 312 h; for pest or weed control at 15.625 g/ha: 15.625 g ai/ha, evaluated after 13 days (100=total damage to plant; 0=no damage to plant), read-out: Morningglory, Ivy-leaved damage rating; for pest or weed control at 62.5 g/ha: 62.5 g ai/ha, read-out: Morningglory, Ivy-leaved damage rating (100=total damage to plant; 0=no damage to plant); for pest or weed control at 62.5 g/ha / pest or weed control at 250 g/ha: evaluated after 13 days; for pest or weed control at 250 g/ha: 250 g ai/ha, read-out: damage to plant, Morningglory, Ivy-leaved (100=total damage to plant; 0=no damage to plant)
Method in brief: as §2

[10] = tested on: giant foxtail (Setaria faberi); experiment: Test G Post-Emergence Protocol; details: Setaria faberi, post-emergence, 312 h; for pest or weed control at 15.625 g/ha: 15.625 g ai/ha, evaluated after 13 days (100=total damage to plant; 0=no damage to plant), read-out: Foxtail, Giant damage rating; for pest or weed control at 62.5 g/ha: 62.5 g ai/ha, read-out: Foxtail, Giant damage rating (100=total damage to plant; 0=no damage to plant); for pest or weed control at 62.5 g/ha / pest or weed control at 250 g/ha: evaluated after 13 days; for pest or weed control at 250 g/ha: 250 g ai/ha, read-out: damage to plant, Foxtail, Giant (100=total damage to plant; 0=no damage to plant)
Method in brief: as §2

[11] = tested on: velvetleaf (Abutilon theophrasti); experiment: Test G Post-Emergence Protocol; details: Abutilon theophrasti, post-emergence, 312 h; for pest or weed control at 15.625 g/ha: 15.625 g ai/ha, evaluated after 13 days (100=total damage to plant; 0=no damage to plant), read-out: Velvetleaf damage rating; for pest or weed control at 62.5 g/ha: 62.5 g ai/ha, read-out: Velvetleaf damage rating (100=total damage to plant; 0=no damage to plant); for pest or weed control at 62.5 g/ha / pest or weed control at 250 g/ha: evaluated after 13 days; for pest or weed control at 250 g/ha: 250 g ai/ha, read-out: damage to plant, Velvetleaf (100=total damage to plant; 0=no damage to plant)
Method in brief: as §2

[12] = tested on: corn (Zea mays); experiment: Test G Post-Emergence Protocol; details: Zea mays, post-emergence, 312 h; for plant injury at 15.625 g/ha: 15.625 g ai/ha, evaluated after 13 days (100=total damage to plant; 0=no damage to plant), read-out: Corn damage rating; for plant injury at 62.5 g/ha: 62.5 g ai/ha, read-out: Corn damage rating (100=total damage to plant; 0=no damage to plant); for plant injury at 62.5 g/ha / plant injury at 250 g/ha: evaluated after 13 days; for plant injury at 250 g/ha: 250 g ai/ha, read-out: damage to plant, Corn (100=total damage to plant; 0=no damage to plant)
Method in brief: as §2

CN1C[C@H](c2ccc(F)c(OCC(F)(F)F)c2)[C@@H](C(=O)Nc2ccccc2F)C1=O (racemic) [Compound 1456]
pest or weed control at 15.625 g/ha [1]: 0% | pest or weed control at 62.5 g/ha [1]: 0% | pest or weed control at 250 g/ha [1]: 90% | pest or weed control at 15.625 g/ha [2]: 20% | pest or weed control at 62.5 g/ha [2]: 60% | pest or weed control at 250 g/ha [2]: 80% | pest or weed control at 15.625 g/ha [3]: 0% | pest or weed control at 250 g/ha [3]: 40% | pest or weed control at 15.625 g/ha [4]: 60% | pest or weed control at 62.5 g/ha [4]: 80% | pest or weed control at 250 g/ha [4]: 90% | pest or weed control at 15.625 g/ha [5]: 0% | pest or weed control at 62.5 g/ha [5]: 0% | pest or weed control at 250 g/ha [5]: 40% | plant injury at 15.625 g/ha [6]: 0% | plant injury at 62.5 g/ha [6]: 0% | plant injury at 250 g/ha [6]: 40% | pest or weed control at 15.625 g/ha [7]: 0% | pest or weed control at 62.5 g/ha [7]: 30% | pest or weed control at 250 g/ha [7]: 40% | pest or weed control at 15.625 g/ha [8]: 10% | pest or weed control at 62.5 g/ha [8]: 10% | pest or weed control at 250 g/ha [8]: 20% | pest or weed control at 15.625 g/ha [9]: 30% | pest or weed control at 62.5 g/ha [9]: 30% | pest or weed control at 250 g/ha [9]: 20% | pest or weed control at 15.625 g/ha [10]: 50% | pest or weed control at 62.5 g/ha [10]: 60% | pest or weed control at 250 g/ha [10]: 70% | pest or weed control at 15.625 g/ha [11]: 0% | pest or weed control at 62.5 g/ha [11]: 20% | pest or weed control at 250 g/ha [11]: 20% | plant injury at 15.625 g/ha [12]: 10% | plant injury at 62.5 g/ha [12]: 20% | plant injury at 250 g/ha [12]: 60%

CN1C[C@@H](c2ccc(Cl)nc2)[C@H](C(=O)Nc2cccc(F)c2F)C1=O (racemic) [Compound 1462]
pest or weed control at 15.625 g/ha [1]: 0% | pest or weed control at 62.5 g/ha [1]: 0% | pest or weed control at 250 g/ha [1]: 0% | pest or weed control at 15.625 g/ha [2]: 20% | pest or weed control at 62.5 g/ha [2]: 50% | pest or weed control at 250 g/ha [2]: 80% | pest or weed control at 15.625 g/ha [3]: 0% | pest or weed control at 62.5 g/ha ([3]; 62.5 g ai/ha, 100=total damage to plant, 0=no damage to plant, read-out: plant damage rating, Morningglory, Ivy-leaved): 0% | pest or weed control at 250 g/ha [3]: 50% | pest or weed control at 15.625 g/ha [4]: 0% | pest or weed control at 62.5 g/ha [4]: 70% | pest or weed control at 250 g/ha [4]: 80% | pest or weed control at 15.625 g/ha [5]: 0% | pest or weed control at 62.5 g/ha [5]: 0% | pest or weed control at 250 g/ha [5]: 0% | plant injury at 15.625 g/ha [6]: 0% | plant injury at 62.5 g/ha [6]: 0% | plant injury at 250 g/ha [6]: 0% | pest or weed control at 15.625 g/ha [7]: 0% | pest or weed control at 62.5 g/ha [7]: 0% | pest or weed control at 250 g/ha [7]: 0% | pest or weed control at 15.625 g/ha [8]: 0% | pest or weed control at 62.5 g/ha [8]: 20% | pest or weed control at 250 g/ha [8]: 30% | pest or weed control at 15.625 g/ha [9]: 0% | pest or weed control at 62.5 g/ha [9]: 20% | pest or weed control at 250 g/ha [9]: 10% | pest or weed control at 15.625 g/ha [10]: 0% | pest or weed control at 62.5 g/ha [10]: 50% | pest or weed control at 250 g/ha [10]: 70% | pest or weed control at 15.625 g/ha [11]: 0% | pest or weed control at 62.5 g/ha [11]: 0% | pest or weed control at 250 g/ha [11]: 0% | plant injury at 15.625 g/ha [12]: 0% | plant injury at 62.5 g/ha [12]: 0% | plant injury at 250 g/ha [12]: 10%
